Patent US20240116923A1, “USE OF INDOLE, 6- AND 7-AZAINDOLE DERIVATIVES AS INHIBITORS OF FERROPTOSIS REGULATED CELL DEATH” (Seabelife, priority 2021, published 2024)
Read-outs that look alike come from different tables or passages of the source.

Experiments:
[1] = tested on: mouse hippocampal neuronal cell line HT22; test: Neurotoxicity and excitotoxicity assay, HT22 cells + glutamate, erastin or RSL3, MTS cell viability; format: cell-based; settings: for EC50: Mus musculus
Description: (§1) The excitotoxicity model used was the mouse hippocampal neuronal HT22 cells treated with glutamate [Dixon et al., Cell, 2012, 149(5), 1060-1072]. Ferroptosis and oxidative stress are both associated in this glutamate-induced cell death [Chu et al., Neural Regen. Res., 2020, 15(3), 528-536]. Phenotypic screening was also carried out with additional cell death inducers, erastin and RSL3 ((1S,3R)-Ras-selective lethal), in HT22 and SH-SY5Y (human neuroblastoma cells). Erastin and RSL3 are well described molecules, used as chemical tools for the study of ferroptosis regulation and neuronal pathologies [Lewerenz et al., Front. Neurosci., 2018, 12: 214; Reichert et al., Int. J. Mol. Sci., 2020, 21, 8765].
(§2) Mouse hippocampal neuronal cell line (HT22, ATCC) and human neuroblastoma cell line (SH-SY5Y, ATCC) were grown in Dulbecco's Modified Eagle Medium (DMEM, Gibco) supplemented with 10% fetal bovine serum (FBS, Gibco) at 37° C. under 5% CO2 atmosphere. Neurotoxicity was induced by erastin or RSL3 and excitotoxicity was induced by glutamate. Cells were seeded in 96-well plates at 5,000 and 10,000 cells/well for HT22 and SH-SY5Y cell lines, respectively. Cells were treated with 0.5-1 μM Erastin (HT22 cells) or 10 μM Erastin (SH-SY5Y cells) or 5-10 mM glutamate (HT22 cells) or 0.5 μM RSL3 (HT22 cells) or 5 μM RSL3 (SH-SY5Y cells) for 24 h in presence of increasing concentrations of inhibitors. Cells treated with DMSO only were used as controls. Cell viability was assessed by MTS assay (CellTiter 96 AQueous One Solution Cell Proliferation assay, Promega).
(§3) In FIGS. 1, 2A and 2B, an inhibitor was added to HT22 (FIG. 1: compound 6) or SH-SY5Y (FIG. 2A: compound 6; FIG. 2B: compound 25) cells in the presence or not of cell death inducers (erastin, glutamate or RSL3). […] EC50 values for compounds 1-28 were calculated from dose-response curves using Graphpad Prism software.

[2] = tested on: human neuroblastoma cell line SH-SY5Y; test: Neurotoxicity assay, SH-SY5Y cells + erastin or RSL3, MTS cell viability; format: cell-based; settings: for EC50: Homo sapiens; for effect on cell viability without cell death inducers (potential cytotoxic effect of the molecule alone): doses tested maximum 50 or 100 μM; for concentration reaching almost total inhibition of induced cell death: in the presence of a ferroptosis inducer
Description: as §1, §2, §3

[3] = HT-22, HT22 cells, 0.5 μM RSL3, 24 h, MTS, read-out: EC50 HT22 RSL3
[4] = HT-22, HT22 cells, 0.5-1 μM Erastin, 24 h, MTS, read-out: EC50 HT22 Erastin
[5] = HT-22, HT22 cells, 5-10 mM glutamate, 24 h, MTS, read-out: EC50 HT22 Glutamate
[6] = SH-SY5Y cells, 10 μM Erastin, 24 h, MTS, read-out: EC50 SH-SY5Y Erastin
[7] = SH-SY5Y cells, 5 μM RSL3, 24 h, MTS, read-out: EC50 SH-SY5Y RSL3
[8] = HT-22, 24 h, read-out: EC50 HT22 Erastin
[9] = HT-22, 24 h, read-out: EC50 HT22 RSL3
[10] = SH-SY5Y, 24 h, read-out: EC50 SH-SY5Y RSL3

SMILES	EC50 [1, 3]	EC50 [1, 4]	EC50 [1, 5]	EC50 [2, 6]	EC50 [2, 7]	other results
CCOc1ccc(-c2cc3c(Nc4ccccc4)ccnc3[nH]2)cc1 [Compound 14, 2-(4-ethoxyphenyl)-N-phenyl-1H-pyrrolo[2,3-b]pyridin-4-amine]	0.76 µM	1.52 µM	0.55 µM	1.11 µM	–	–
CCOc1ccc(-c2cc3c(N(C)c4ccccc4)ccnc3[nH]2)cc1 [Compound 44, 2-(4-ethoxyphenyl)-N-methyl-N-phenyl-1H-pyrrolo[2,3-b]pyridin-4-amine]	7.12 µM	0.43 µM	–	4.43 µM	2.66 µM	–
Oc1ccc(-c2cc3ccc(-c4ccc(O)nc4)nc3[nH]2)cc1 [Compound 40, 5-(2-(4-hydroxyphenyl)-1H-pyrrolo[2,3-b]pyridin-6-yl)pyridin-2-ol]	4.98 µM	13.3 µM	–	5.06 µM	0.95 µM	–
CC(C)(C)OC(=O)n1c(-c2ccc(O)cc2)cc2ccccc21 [Compound 29, tert-butyl 2-(4-hydroxyphenyl)-1H-indole-1-carboxylate]	3.96 µM	8.3 µM	5.5 µM	–	1.46 µM	–
CCOc1ccc(-c2cc3ccncc3n2O)cc1 [Compound 5, 2-(4-ethoxyphenyl)-1Hpyrrolo[2,3-c]pyridin-1-ol]	2.79 µM	3.23 µM	3.6 µM	0.52 µM	–	–
CCOc1ccc(-c2cc3ccncc3n2OC(=O)N(CC)CC)cc1 [Compound 34, 2-(4-ethoxyphenyl)-1H-pyrrolo[2,3-c]pyridin-1-yl diethylcarbamate]	–	–	–	–	–	EC50 [1, 8]: > 50 µM; EC50 [1, 9]: 16.8 µM; EC50 [2, 10]: 6.62 µM
CCOc1ccc(-c2cc3c(-c4ccc(C(=O)c5ccccc5)cc4)ccn(Cc4ccccc4)c-3n2)cc1 [Compound 28, (4-(7-benzyl-2-(4-ethoxyphenyl)-7H-pyrrolo[2,3-b]pyridin-4-yl)phenyl)(phenyl)methanone]	17.3 µM	23.9 µM	14.8 µM	31.3 µM	15.8 µM	–
CCOc1ccc(-c2cc3ccc(N)nc3[nH]2)cc1 [Compound 36, 2-(4-ethoxyphenyl)-1H-pyrrolo[2,3-b]pyridin-6-amine]	0.27 µM	0.32 µM	–	0.23 µM	0.07 µM	–
COc1ccc(-c2cc3ccccc3[nH]2)cc1 [Compound 2, 2-(4-methoxyphenyl)-1H-indole]	–	–	–	–	–	EC50 [1, 8]: 7.92 µM; EC50 ([1]; HT-22, 24 h, read-out: EC50 HT22 Glutamate): 2.66 µM; EC50 [1, 9]: 46 µM; EC50 ([2]; SH-SY5Y, 24 h, read-out: EC50 SH-SY5Y Erastin): 2.9 µM; EC50 [2, 10]: 7.43 µM
CCOc1ccc(-c2cc3c(N4CCCCC4)ccnc3[nH]2)cc1 [Compound 13, 2-(4-ethoxyphenyl)-4-(piperidin-1-yl)-1H-pyrrolo[2,3-b]pyridine]	44.1 µM	3.62 µM	0.92 µM	1.11 µM	9.25 µM	–
CCOc1ccc(-c2cc3cccn(Cc4ccc(OC)cc4)c-3n2)cc1 [Compound 27, 2-(4-ethoxyphenyl)-7-(4-methoxybenzyl)-7H-pyrrolo[2,3-b]pyridine]	9.93 µM	3.9 µM	1.5 µM	2.46 µM	–	–
CCOc1ccc(-c2cc3cccnc3n2-c2ccc([N+](=O)[O-])cn2)cc1 [Compound 19, 2-(4-ethoxyphenyl)-1-(5-nitropyridin-2-yl)-1H-pyrrolo[2,3-b]pyridine]	22.1 µM	23.3 µM	12.8 µM	14.3 µM	5.6 µM	–
COc1ccc(-c2ccc3cc(-c4ccc(O)cc4)[nH]c3n2)cn1 [Compound 39, 4-(6-(6-methoxypyridin-3-yl)-1H-pyrrolo[2,3-b]pyridin-2-yl)phenol]	16.1 µM	16.1 µM	–	5.83 µM	1.47 µM	–
CCOc1ccc(-c2cc3c(Cl)ccnc3n2C(=O)OC(C)(C)C)cc1 [Compound 21, tert-butyl 4-chloro-2-(4-ethoxyphenyl)-1H-pyrrolo[2,3-b]pyridine-1-carboxylate]	–	> 25 µM	> 25 µM	> 25 µM	–	–
CCOc1ccc(-c2cc3ccncc3n2OC(=O)c2ccccc2)cc1 [Compound 6, 2-(4-ethoxyphenyl)-1H-pyrrolo[2,3-c]pyridin-1-yl benzoate]	2.31 µM	2.05 µM	1.64 µM	0.18 µM	–	effect on cell viability without cell death inducers (potential cytotoxic effect of the molecule alone) ([1]; HT22 cells, 24 h, doses tested maximum 50 or 100 μM): no effect on cell viability; concentration reaching almost total inhibition of induced cell death ([1]; HT22 cells, in the presence of a ferroptosis inducer): 10 µM; effect on cell viability without cell death inducers (potential cytotoxic effect of the molecule alone) ([2]; SH-SY5Y cells, 24 h): no effect on cell viability; concentration reaching almost total inhibition of induced cell death ([2]; SH-SY5Y cells): 1 µM
CCOc1ccc(-c2cc3ccc(OC(C)=O)nc3[nH]2)cc1 [Compound 38]	2.56 µM	6.78 µM	–	1.61 µM	0.2 µM	–
CCOc1ccc(-c2cc3c(N4CCN(C)CC4)ccnc3[nH]2)cc1 [Compound 15, 2-(4-ethoxyphenyl)-4-(4-methylpiperazin-1-yl)-1H-pyrrolo[2,3-b]pyridine]	7.19 µM	1.54 µM	0.5 µM	2.45 µM	–	–
CCOc1ccc(-c2cc3c(Nc4ccc(C(=O)c5ccccc5)cc4)ccnc3[nH]2)cc1 [Compound 11, (4-((2-(4-ethoxyphenyl)-1H-pyrrolo[2,3-b]pyridin-4-yl)amino)phenyl)(phenyl)methanone]	1.16 µM	0.32 µM	0.14 µM	0.15 µM	–	–
CCOc1ccc(-c2cc3ccc(C#N)nc3[nH]2)cc1 [Compound 35, 2-(4-ethoxyphenyl)-1H-pyrrolo[2,3-b]pyridine-6-carbonitrile]	5.4 µM	17 µM	–	5.95 µM	1.03 µM	–
CCOc1ccc(-c2cc3ccncc3[nH]2)cc1 [Compound 4, 2-(4-ethoxyphenyl)-1H-pyrrolo[2,3-c]pyridine]	27.8 µM	> 25 µM	> 25 µM	7.66 µM	5.42 µM	–
CCOc1ccc(-c2cc3cccn(C(=O)OCc4ccccc4)c-3n2)cc1 [Compound 25, benzyl 2-(4-ethoxyphenyl)-7H-pyrrolo[2,3-b]pyridine-7-carboxylate]	19 µM	3.39 µM	1.65 µM	1.4 µM	5.25 µM	effect on cell viability without cell death inducers (potential cytotoxic effect of the molecule alone) ([2]; SH-SY5Y cells, 24 h): no effect on cell viability; concentration reaching almost total inhibition of induced cell death ([2]; SH-SY5Y cells): 10 µM
CCOc1ccc(-c2cc3ccc[n+]([O-])c3[nH]2)cc1 [Compound 23, 2-(4-ethoxyphenyl)-1H-pyrrolo[2,3-b]pyridine-7-oxide]	9.93 µM	> 25 µM	> 25 µM	26.3 µM	2.64 µM	–
Oc1ccc(-c2cc3ccc(Cl)nc3[nH]2)cc1 [Compound 37, 4-(6-chloro-1H-pyrrolo[2,3-b]pyridin-2-yl)phenol]	9.11 µM	11.8 µM	–	7.13 µM	1.22 µM	–
CCOc1ccc(-c2cc3cccn(Cc4ccccc4)c-3n2)cc1 [Compound 26, 7-benzyl-2-(4-ethoxyphenyl)-7H-pyrrolo[2,3-b]pyridine]	–	12.7 µM	0.82 µM	9.94 µM	33.7 µM	–
